Measurements taken from the NIST ThermoML archive (doi:10.1007/s10765-012-1352-4).

Assay: xn = mol fraction of the nth substance listed
Conditions: Gas, Loschmidt diffusion cell combined with holoholographic interferometry

[Ne] [neon] + [Ar]
binary diffusion coefficient [m2/s]
Conditions	100 kPa	200 kPa	500 kPa	1000 kPa
293.15 K, x2 = 0.1	3.14e-10	1.57e-10	6.34e-11	3.1e-11
293.15 K, x2 = 0.12	3.14e-10	1.57e-10	6.32e-11	3.1e-11
293.15 K, x2 = 0.14	3.13e-10	1.57e-10	6.31e-11	3.1e-11
293.15 K, x2 = 0.16	3.13e-10	1.57e-10	6.3e-11	3.09e-11
293.15 K, x2 = 0.18	3.12e-10	1.56e-10	6.29e-11	3.09e-11
293.15 K, x2 = 0.2	3.11e-10	1.56e-10	6.28e-11	3.08e-11
293.15 K, x2 = 0.22	3.11e-10	1.56e-10	6.27e-11	3.08e-11
293.15 K, x2 = 0.24	3.1e-10	1.56e-10	6.27e-11	3.07e-11
293.15 K, x2 = 0.26	3.1e-10	1.56e-10	6.26e-11	3.07e-11
293.15 K, x2 = 0.28	3.1e-10	1.56e-10	6.25e-11	3.06e-11
293.15 K, x2 = 0.3	3.09e-10	1.56e-10	6.24e-11	3.06e-11
293.15 K, x2 = 0.32	3.08e-10	1.55e-10	6.23e-11	3.05e-11
293.15 K, x2 = 0.34	3.08e-10	1.55e-10	6.22e-11	3.04e-11
293.15 K, x2 = 0.36	3.07e-10	1.55e-10	6.21e-11	3.03e-11
293.15 K, x2 = 0.38	3.08e-10	1.54e-10	6.2e-11	3.02e-11
293.15 K, x2 = 0.4	3.07e-10	1.54e-10	6.19e-11	3.01e-11
293.15 K, x2 = 0.6	3.1e-10	1.56e-10	6.31e-11	3.13e-11
293.15 K, x2 = 0.62	3.09e-10	1.56e-10	6.29e-11	3.13e-11
293.15 K, x2 = 0.64	3.09e-10	1.56e-10	6.28e-11	3.13e-11
293.15 K, x2 = 0.66	3.09e-10	1.56e-10	6.28e-11	3.12e-11
293.15 K, x2 = 0.68	3.09e-10	1.56e-10	6.28e-11	3.12e-11
293.15 K, x2 = 0.7	3.09e-10	1.56e-10	6.28e-11	3.12e-11
293.15 K, x2 = 0.72	3.1e-10	1.56e-10	6.28e-11	3.12e-11
293.15 K, x2 = 0.74	3.1e-10	1.56e-10	6.28e-11	3.12e-11
293.15 K, x2 = 0.76	3.1e-10	1.56e-10	6.28e-11	3.13e-11
293.15 K, x2 = 0.78	3.1e-10	1.57e-10	6.28e-11	3.13e-11
293.15 K, x2 = 0.8	3.1e-10	1.57e-10	6.28e-11	3.13e-11
293.15 K, x2 = 0.82	3.1e-10	1.57e-10	6.29e-11	3.13e-11
293.15 K, x2 = 0.84	3.11e-10	1.57e-10	6.29e-11	3.13e-11
293.15 K, x2 = 0.86	3.11e-10	1.57e-10	6.29e-11	3.13e-11
293.15 K, x2 = 0.88	3.11e-10	1.57e-10	6.3e-11	3.14e-11
293.15 K, x2 = 0.9	3.11e-10	1.57e-10	6.3e-11	3.14e-11
313.15 K, x2 = 0.1	3.56e-10	1.78e-10	7.02e-11	3.5e-11
313.15 K, x2 = 0.12	3.54e-10	1.77e-10	7e-11	3.49e-11
313.15 K, x2 = 0.14	3.53e-10	1.77e-10	6.99e-11	3.49e-11
313.15 K, x2 = 0.16	3.52e-10	1.77e-10	6.98e-11	3.48e-11
313.15 K, x2 = 0.18	3.52e-10	1.76e-10	6.97e-11	3.47e-11
313.15 K, x2 = 0.2	3.51e-10	1.76e-10	6.96e-11	3.47e-11
313.15 K, x2 = 0.22	3.51e-10	1.76e-10	6.95e-11	3.46e-11
313.15 K, x2 = 0.24	3.49e-10	1.75e-10	6.94e-11	3.45e-11
313.15 K, x2 = 0.26	3.49e-10	1.75e-10	6.92e-11	3.44e-11
313.15 K, x2 = 0.28	3.48e-10	1.75e-10	6.91e-11	3.44e-11
313.15 K, x2 = 0.3	3.47e-10	1.74e-10	6.89e-11	3.42e-11
313.15 K, x2 = 0.32	3.47e-10	1.74e-10	6.88e-11	3.41e-11
313.15 K, x2 = 0.34	3.46e-10	1.74e-10	6.86e-11	3.4e-11
313.15 K, x2 = 0.36	3.46e-10	1.74e-10	6.84e-11	3.39e-11
313.15 K, x2 = 0.38	3.45e-10	1.73e-10	6.82e-11	3.37e-11
313.15 K, x2 = 0.4	3.44e-10	1.73e-10	6.79e-11	3.35e-11
313.15 K, x2 = 0.6	3.52e-10	1.75e-10	7.09e-11	3.52e-11
313.15 K, x2 = 0.62	3.51e-10	1.75e-10	7.08e-11	3.51e-11
313.15 K, x2 = 0.64	3.51e-10	1.75e-10	7.07e-11	3.5e-11
313.15 K, x2 = 0.66	3.5e-10	1.75e-10	7.06e-11	3.5e-11
313.15 K, x2 = 0.68	3.5e-10	1.75e-10	7.06e-11	3.5e-11
313.15 K, x2 = 0.7	3.5e-10	1.75e-10	7.05e-11	3.5e-11
313.15 K, x2 = 0.72	3.5e-10	1.75e-10	7.05e-11	3.5e-11
313.15 K, x2 = 0.74	3.49e-10	1.75e-10	7.05e-11	3.5e-11
313.15 K, x2 = 0.76	3.49e-10	1.75e-10	7.06e-11	3.5e-11
313.15 K, x2 = 0.78	3.49e-10	1.75e-10	7.06e-11	3.5e-11
313.15 K, x2 = 0.8	3.49e-10	1.75e-10	7.06e-11	3.5e-11
313.15 K, x2 = 0.82	3.49e-10	1.75e-10	7.06e-11	3.5e-11
313.15 K, x2 = 0.84	3.49e-10	1.76e-10	7.07e-11	3.5e-11
313.15 K, x2 = 0.86	3.5e-10	1.76e-10	7.07e-11	3.5e-11
313.15 K, x2 = 0.88	3.51e-10	1.76e-10	7.07e-11	3.51e-11
313.15 K, x2 = 0.9	3.51e-10	1.76e-10	7.08e-11	3.51e-11
333.15 K, x2 = 0.1	3.99e-10	1.97e-10	7.82e-11	3.91e-11
333.15 K, x2 = 0.12	3.97e-10	1.97e-10	7.8e-11	3.9e-11
333.15 K, x2 = 0.14	3.95e-10	1.96e-10	7.79e-11	3.89e-11
333.15 K, x2 = 0.16	3.94e-10	1.96e-10	7.77e-11	3.88e-11
333.15 K, x2 = 0.18	3.93e-10	1.95e-10	7.76e-11	3.87e-11
333.15 K, x2 = 0.2	3.91e-10	1.95e-10	7.74e-11	3.86e-11
333.15 K, x2 = 0.22	3.91e-10	1.95e-10	7.72e-11	3.86e-11
333.15 K, x2 = 0.24	3.89e-10	1.94e-10	7.7e-11	3.85e-11
333.15 K, x2 = 0.26	3.89e-10	1.94e-10	7.69e-11	3.84e-11
333.15 K, x2 = 0.28	3.87e-10	1.93e-10	7.67e-11	3.83e-11
333.15 K, x2 = 0.3	3.86e-10	1.93e-10	7.65e-11	3.82e-11
333.15 K, x2 = 0.32	3.86e-10	1.93e-10	7.63e-11	3.81e-11
333.15 K, x2 = 0.34	3.84e-10	1.92e-10	7.6e-11	3.8e-11
333.15 K, x2 = 0.36	3.83e-10	1.91e-10	7.57e-11	3.79e-11
333.15 K, x2 = 0.38	3.83e-10	1.91e-10	7.53e-11	3.77e-11
333.15 K, x2 = 0.4	3.8e-10	1.9e-10	7.48e-11	3.75e-11
333.15 K, x2 = 0.6	3.87e-10	1.94e-10	7.82e-11	3.91e-11
333.15 K, x2 = 0.62	3.85e-10	1.94e-10	7.81e-11	3.91e-11
333.15 K, x2 = 0.64	3.84e-10	1.94e-10	7.8e-11	3.9e-11
333.15 K, x2 = 0.66	3.85e-10	1.94e-10	7.8e-11	3.9e-11
333.15 K, x2 = 0.68	3.85e-10	1.94e-10	7.79e-11	3.9e-11
333.15 K, x2 = 0.7	3.85e-10	1.94e-10	7.79e-11	3.89e-11
333.15 K, x2 = 0.72	3.86e-10	1.93e-10	7.79e-11	3.89e-11
333.15 K, x2 = 0.74	3.85e-10	1.94e-10	7.8e-11	3.89e-11
333.15 K, x2 = 0.76	3.86e-10	1.94e-10	7.8e-11	3.9e-11
333.15 K, x2 = 0.78	3.86e-10	1.94e-10	7.8e-11	3.9e-11
333.15 K, x2 = 0.8	3.86e-10	1.94e-10	7.8e-11	3.9e-11
333.15 K, x2 = 0.82	3.86e-10	1.94e-10	7.81e-11	3.9e-11
333.15 K, x2 = 0.84	3.86e-10	1.94e-10	7.81e-11	3.9e-11
333.15 K, x2 = 0.86	3.86e-10	1.94e-10	7.82e-11	3.9e-11
333.15 K, x2 = 0.88	3.86e-10	1.94e-10	7.82e-11	3.91e-11
333.15 K, x2 = 0.9	3.86e-10	1.94e-10	7.82e-11	3.91e-11
